Results published in ChEMBL document CHEMBL1124317, “Rationale for the synthesis and preliminary biological evaluation of highly active new antitumor nitrosoureido sugars” (J Med Chem, 1989).

Experiments:
[1] = test system: Mus musculus; experiment: The number of L1210 leukemia mice survived after 30 days with compound injected by a dose of 0.625 mg/kg intraperitoneally; 0/8; assay type: functional; settings: route intraperitoneal
[2] = test system: Mus musculus; experiment: Median survival time of the non surviving mice; treated with 2.5 mg/kg of compound to mice with L1210 leukemia; 17-25; assay type: functional
[3] = test system: Mus musculus; experiment: The number of L1210 leukemia mice survived after 30 days with compound in aqueous solution injected by a dose of 5 mg/kg intraperitoneally; 7/10; assay type: functional; settings: route intraperitoneal
[4] = test system: Mus musculus; experiment: Median survival time of the non surviving mice; treated with 5 mg/kg of compound to mice with L1210 leukemia; 43-54; assay type: functional
[5] = test system: Mus musculus; experiment: Anti tumor activity in olive oil when treated to mice with L1210 leukemia with 5 mg/kg dose of compound intraperitoneally was expressed as percent of treated to control (T/C %); assay type: functional; settings: route intraperitoneal
[6] = Mortality range of the mice with L1210 leukemia treated with 0.625 mg/kg of dose intra peritoneally with no of mice survived/no of mice treated; 0/8; assay type: functional
[7] = Mortality range of the mice with L1210 leukemia treated with 1.25 mg/kg of dose intraperitoneally with no of mice survived/no of mice treated; 0/8; assay type: functional; settings: route intraperitoneal
[8] = test system: Mus musculus; experiment: Median survival time of the non surviving mice; treated with 5 mg/kg of compound in olive oil to mice with L1210 leukemia; 23-49; assay type: functional
[9] = test system: Mus musculus; experiment: The number of L1210 leukemia mice survived after 30 days with compound injected by a dose of 1.25 mg/kg intraperitoneally; 0/8; assay type: functional; settings: route intraperitoneal
[10] = Number of mice died/no of mice treated with 5 mg/kg of compound in aqueous solution intraperitoneally with L1210 leukemia; 0/10; assay type: functional; settings: route intraperitoneal
[11] = test system: Mus musculus; experiment: Anti tumor activity l when treated to mice with L1210 leukemia with 0.625 mg/kg dose of compound intraperitoneally was expressed as percent of treated to control (T/C %); assay type: functional; settings: route intraperitoneal
[12] = test system: Mus musculus; experiment: Anti tumor activity l when treated to mice with L1210 leukemia with 5 mg/kg dose of compound intraperitoneally was expressed as percent of treated to control (T/C %); assay type: functional; settings: route intraperitoneal
[13] = Mortality range of the mice with L1210 leukemia treated with 5 mg/kg of dose intraperitoneally with no of mice survived/no of mice treated; 0/8; assay type: functional; settings: route intraperitoneal
[14] = test system: Mus musculus; experiment: Median survival time of the non surviving mice; treated with 10 mg/kg of compound in olive oil to mice with L1210 leukemia; 15-25; assay type: functional
[15] = test system: Mus musculus; experiment: Median survival time of the non surviving mice; treated with 0.625 mg/kg of compound to mice with L1210 leukemia; 10-11; assay type: functional
[16] = test system: Mus musculus; experiment: The number of L1210 leukemia mice survived after 60 days with compound in aqueous solution injected by a dose of 10 mg/kg intraperitoneally; 0/10; assay type: functional; settings: route intraperitoneal
[17] = test system: Mus musculus; experiment: The number of L1210 leukemia mice survived after 60 days with compound injected by a dose of 5 mg/kg intraperitoneally; 4/8; assay type: functional; settings: route intraperitoneal
[18] = test system: Mus musculus; experiment: The number of L1210 leukemia mice survived after 60 days with compound in aqueous solution injected by a dose of 5 mg/kg intraperitoneally; 4/10; assay type: functional; settings: route intraperitoneal
[19] = test system: Mus musculus; experiment: The number of L1210 leukemia mice survived after 30 days with compound injected by a dose of 2.5 mg/kg intraperitoneally; 0/8; assay type: functional; settings: route intraperitoneal
[20] = test system: Mus musculus; experiment: Median survival time of the non surviving mice; treated with 1.25 mg/kg of compound to mice with L1210 leukemia; 11-15; assay type: functional
[21] = test system: Mus musculus; experiment: Anti tumor activity in olive oil when treated to mice with L1210 leukemia with 10 mg/kg dose of compound intraperitoneally was expressed as percent of treated to control (T/C %); assay type: functional; settings: route intraperitoneal
[22] = Number of mice died/no of mice treated with 10 mg/kg of compound in aqueous solution intraperitoneally with L1210 leukemia; 1/10; assay type: functional; settings: route intraperitoneal
[23] = test system: Mus musculus; experiment: Anti tumor activity l when treated to mice with L1210 leukemia with 2.5 mg/kg dose of compound intraperitoneally was expressed as percent of treated to control (T/C %); assay type: functional; settings: route intraperitoneal
[24] = test system: Mus musculus; experiment: The number of L1210 leukemia mice survived after 30 days with compound in aqueous solution injected by a dose of 10 mg/kg intraperitoneally; 0/10; assay type: functional; settings: route intraperitoneal
[25] = test system: Mus musculus; experiment: The number of L1210 leukemia mice survived after 30 days with compound injected by a dose of 5 mg/kg intraperitoneally; 8/8; assay type: functional; settings: route intraperitoneal
[26] = test system: Mus musculus; experiment: Anti tumor activity l when treated to mice with L1210 leukemia with 1.25 mg/kg dose of compound intraperitoneally was expressed as percent of treated to control (T/C %); assay type: functional; settings: route intraperitoneal
[27] = test system: Mus musculus; experiment: Mortality range of the mice with L1210 leukemia treated with 2.5 mg/kg of dose intraperitoneally with no of mice survived/no of mice treated; 0/8; assay type: functional; settings: route intraperitoneal
[28] = test system: Mus musculus; experiment: The number of L1210 leukemia mice survived after 30 days with compound in aqueous solution injected by a dose of 5 mg/kg intraperitoneally; 6/10; assay type: functional; settings: route intraperitoneal
[29] = test system: Mus musculus; experiment: The number of L1210 leukemia mice survived after 60 days with compound in aqueous solution injected by a dose of 5 mg/kg intraperitoneally; 6/10; assay type: functional; settings: route intraperitoneal
[30] = organism: Mus musculus; experiment: Median survival time of the non surviving mice; there are single deaths on day 20, day 21, day 22, and day 25; four deaths occurred; assay type: functional, organism-based
[31] = Ratio of mice died to that of mice treated with 20 mg/kg of compound in aqueous solution intraperitoneally with L1210 leukemia; 0/10; assay type: functional; settings: route intraperitoneal
[32] = test system: Mus musculus; experiment: Anti tumor activity in olive oil when treated to mice with B16 melanocarcinoma with 5 mg/kg dose of compound intraperitoneally was expressed as percent of treated to control (T/C %); assay type: functional; settings: route intraperitoneal
[33] = test system: Mus musculus; experiment: The number of L1210 leukemia mice survived after 30 days with compound in aqueous solution injected by a dose of 20 mg/kg intraperitoneally; 0/10; assay type: functional; settings: route intraperitoneal
[34] = Ratio of mice died to that of mice treated with 20 mg/kg of compound in olive oil intraperitoneally with L1210 leukemia tumor; 0/15; assay type: functional; settings: route intraperitoneal
[35] = Ratio of mice died to that of mice treated with 20 mg/kg of compound in olive oil intraperitoneally with Lewis lung; 0/20; assay type: functional; settings: route intraperitoneal
[36] = test system: Mus musculus; experiment: The number of L1210 leukemia mice survived after 60 days with compound in aqueous solution injected by a dose of 20 mg/kg intraperitoneally; 0/10; assay type: functional; settings: route intraperitoneal
[37] = test system: Mus musculus; experiment: The number of L1210 Leukemia mice survived after 30 days with compound in olive oil injected by a dose of 20 mg/kg intraperitoneally; 15/15; assay type: functional; settings: route intraperitoneal
[38] = test system: Mus musculus; experiment: The number of B16 melanocarcinoma mice survived after 60 days with compound in olive oil injected by a dose of 20 mg/kg intraperitoneally; 1/20; assay type: functional; settings: route intraperitoneal
[39] = test system: Mus musculus; experiment: The number of L1210 Leukemia mice survived after 60 days with compound in olive oil injected by a dose of 20 mg/kg intraperitoneally; 15/15; assay type: functional; settings: route intraperitoneal
[40] = test system: Mus musculus; experiment: Anti tumor activity in olive oil when treated to mice with L1210 leukemia with 5 mg/kg dose of compound intraperitoneally was expressed as percent of treated to control; assay type: functional; settings: route intraperitoneal
[41] = Ratio of mice died to that of mice treated with 20 mg/kg of compound in olive oil intraperitoneally with B16 Melanocarcinoma; 0/20; assay type: functional; settings: route intraperitoneal
[42] = test system: Mus musculus; experiment: Median survival time of the non surviving mice; treated with 5 mg/kg of compound in olive oil to mice with L1210 leukemia and the value is mentioned in braces is range; assay type: functional
[43] = test system: Mus musculus; experiment: The number of Lewis lung mice survived after 60 days with compound in olive oil injected by a dose of 20 mg/kg intraperitoneally; 15/20; assay type: functional; settings: route intraperitoneal
[44] = test system: Mus musculus; experiment: Median survival time of the non surviving mice; treated with 5 mg/kg of compound in olive oil to mice with B16 Melanocarcinoma; 13-51; assay type: functional
[45] = test system: Mus musculus; experiment: The number of B16 melanocarcinoma mice survived after 30 days with compound in olive oil injected by a dose of 20 mg/kg intraperitoneally; 14/20; assay type: functional; settings: route intraperitoneal
[46] = test system: Mus musculus; experiment: The number of Lewis lung mice survived after 30 days with compound in olive oil injected by a dose of 20 mg/kg intraperitoneally; 20/20; assay type: functional; settings: route intraperitoneal

Q: Which results are given for `CO[C@H]1C[C@@H](NC(=O)N(CCCl)N=O)[C@H](O)[C@@H](C)O1`?
A: Survivals [1]: 0; Median survival time [2]: 21.9; Survivals [3]: 7; Median survival time [4]: 48.5; T/C [5]: 519%; Ratio [6]: 0; Ratio [7]: 0; Median survival time [8]: 49; Survivals [9]: 0; Ratio [10]: 0; T/C [11]: 118%; T/C [12]: 539%; Ratio [13]: 0; Median survival time [14]: 18.75; Median survival time [15]: 10.6; Survivals [16]: 0; Survivals [17]: 4; Survivals [18]: 4; Survivals [19]: 0; Median survival time [20]: 12.9; T/C [21]: 198%; Ratio [22]: 1; T/C [23]: 244%; Survivals [24]: 0; Survivals [25]: 8; T/C [26]: 144%; Mortality ratio [27]: 0

Q: Which results are given for `CO[C@H]1C[C@@H](NC(=O)N(CCCl)N=O)[C@H](O)[C@@H](CO)O1`?
A: Survivals [28]: 6; Survivals [29]: 6; Ratio [10]: 0; Number of deaths [30]: 4

Q: For `CO[C@@H]1C[C@@H](NC(=O)N(CCCl)N=O)[C@H](O)[C@@H](C)O1`, which Ratio [31] is on record?
A: Its Ratio is 0.

Q: And the T/C [32]?
A: The T/C was 260%.

Q: And the Survivals [33]?
A: Its Survivals is 0.

Q: And the Ratio [34]?
A: The Ratio was 0.

Q: What about the Ratio [35] of the same molecule?
A: The Ratio was 0.

Q: What about the Survivals [36] of the same molecule?
A: Its Survivals is 0.

Q: What about the Survivals [37] of the same molecule?
A: The Survivals was 15.

Q: What about the Survivals [38] of the same molecule?
A: Its Survivals is 1.

Q: And the Survivals [39]?
A: The Survivals was 15.

Q: And the T/C [40]?
A: The T/C was 150%.

Q: What about the Ratio [41] of the same molecule?
A: The Ratio was 0.

Q: And the Median survival time [42]?
A: Its Median survival time is 14.2.

Q: What about the Survivals [43] of the same molecule?
A: Its Survivals is 15.

Q: What about the Median survival time [44] of the same molecule?
A: Its Median survival time is 36.25.

Q: What about the Survivals [45] of the same molecule?
A: Its Survivals is 14.

Q: And the Survivals [46]?
A: Its Survivals is 20.
